Data: patent US11839679B2, “Gamma-diketones for treatment and prevention of aging skin and wrinkles” (BioSplice Therapeutics, Inc., priority 2014, dated 2023)

System: fine lines, wrinkles in the outer canthus of the eyes (crow's feet area)
Test: Panelist self-assessment questionnaire, Example 1
Assay type: in vivo, human
Design: key to Q2 appearance of my skin around either of my eyes, Score: 1: Better; 2: Little better; 3: Same; 4: Little worse; 5: Worse
Settings: for Q3 how do you feel about the treated area surrounding your eyes and the appearance of wrinkles, % Responders Score 3: Score 3 = Neither satisfied or dissatisfied; for Q2 appearance of my skin around either of my eyes, % Responders Score 3: Score 3 = Same; for Q4 any discomfort, other than slight tingling, in the treated area during the study, % Responders Score 3: Score 3 = Yes, occasional discomfort lasting more than one hour; for Q1 My wrinkles in the eye area have improved, % Responders Score 4: Score 4 = Disagree; for Q3 how do you feel about the treated area surrounding your eyes and the appearance of wrinkles, % Responders Score 4: Score 4 = Dissatisfied; for Q2 appearance of my skin around either of my eyes, % Responders Score 4: Score 4 = Little worse; for Q4 any discomfort, other than slight tingling, in the treated area during the study, % Responders Score 4: Score 4 = Yes, every day lasting less than an hour; for Q1 My wrinkles in the eye area have improved, % Responders Score 5: Score 5 = Strongly disagree; for Q3 how do you feel about the treated area surrounding your eyes and the appearance of wrinkles, % Responders Score 5: Score 5 = Very Dissatisfied; for Q2 appearance of my skin around either of my eyes, % Responders Score 5: Score 5 = Worse; for Q4 any discomfort, other than slight tingling, in the treated area during the study, % Responders Score 5: Score 5 = Yes, everyday lasting more than an hour
Experimental: Three groups of women were recruited to evaluate and compare the efficacy of three anti-aging test products (targeting the periorbital eye area) intended to reduce the appearance of fine lines, wrinkles in the outer canthus of the eyes (crow's feet area) over a 12 week period. Wrinkle assessment was conducted instrumentally using a Visioscan image analysis system. Effectiveness of the test product was evaluated using panelist self-assessment via questionnaire responses comprised of 3-4 questions (Q1, Q2, Q3 & Q4). Each stage in the progression of treatments was photographically documented using a High Resolution Scientifically Matched Photography technique. Image analysis was utilized to quantify changes in fine lines and crow's feet condition observed in the Scientifically Matched Photographs.
Subject Selection: • Number: Six subjects (two per group) to complete the study. • Sex: Females • Race: Caucasian/Asian/Hispanic • Age Range: 40 through 60 years old
Test samples: • Topical 0.15% of Compound #222 in Oil (a 50/50 mixture of • Propylene Glycol Dicaprylate/Dicaprate and Caprylic/Capric Triglyceride) (Cohort 1) • Topical 0.15% of Compound #222 in PEG400 (Cohort 2) • Topical 0.05% of Compound #222 in PEG400 (Cohort 3)
All subjects were instructed to use the test material once a day, as part of their daily skin care routine. Immediately following baseline evaluations, the subjects were issued the product with the following instructions:
GROUP 1—Compound #222 Topical 0.15% in oil (Cohort 1): The subjects were instructed to hold the bottle at an angle such that the roller-ball was at bottom and apply the roller-ball to the periorbital area, including the crow's feet area, 2-3 times, starting from the area under the eye (and above the cheekbone) and moving up towards the outer tip of the eye-brow. After 2-3 rolls, they were able to see wetness on the treated area. This procedure was repeated for the other eye.
GROUPS 2 & 3 Compound #222 Topical 0.15% in PEG (Cohort 2) & Compound #222 Topical 0.05% in PEG (Cohort 3): The subjects were instructed to hold the dispenser upright with one hand and with the tip of the index finger on the pump (similar to holding a spray container), pour a small amount of the product into the palm of their other hand by pumping once or twice. The product was then applied on to the periorbital area, including the crow's feet area, of both eyes with their index finger.
[…] After acclimating to ambient conditions, High Resolution Scientifically Matched Photographs were be taken and biophysical measurements (Surface Evaluation of Living Skin via Visioscan) were repeated using the standard template to identify test sites on the face. In addition (during the acclimation period) all participants were be asked to fill out a self-assessment questionnaire.
The source data was Visioscan and PhotoGrammetrix Image Analysis readings along with subjective assessments, which were totaled and reported as average scores. Photographs were placed side by side as to compare the photographs of before and after application of the test product in the eye area. Wrinkle reduction analysis source data consisted of crow's feet area quantification in relative units (px), collected at baseline and, the week 2, 4, 8 and 12 evaluations. The data obtained via Visioscan and from PhotoGrammetrix Image Analysis was quoted as % differences from baseline at each of the previously described time points. A paired t-test analysis was conducted in order to compare the results of post test product application measurements to baseline measurements where applicable. Statistical significance was established if p≤(α=0.05) was calculated.

[1] = Day 7, Topical 0.05% in PEG (Cohort 3)
[2] = Day 7, Topical 0.15% in Oil (Cohort 1)
[3] = Day 7, Topical 0.15% in PEG (Cohort 2)
[4] = Day 14, Topical 0.05% in PEG (Cohort 3)
[5] = Day 14, Topical 0.15% in Oil (Cohort 1)
[6] = Day 14, Topical 0.15% in PEG (Cohort 2)

O=C(CCC(=O)c1ccc2c(c1)OCO2)c1ccccc1 [#222]
Q3 how do you feel about the treated area surrounding your eyes and the appearance of wrinkles, % Responders Score 3 [1]: 50% | Q3 how do you feel about the treated area surrounding your eyes and the appearance of wrinkles, % Responders Score 3 [2]: 50% | Q3 how do you feel about the treated area surrounding your eyes and the appearance of wrinkles, % Responders Score 3 [3]: 50% | Q3 how do you feel about the treated area surrounding your eyes and the appearance of wrinkles, % Responders Score 3 [4]: 0% | Q3 how do you feel about the treated area surrounding your eyes and the appearance of wrinkles, % Responders Score 3 [5]: 50% | Q3 how do you feel about the treated area surrounding your eyes and the appearance of wrinkles, % Responders Score 3 [6]: 0% | Q2 appearance of my skin around either of my eyes, % Responders Score 3 [1]: 0% | Q2 appearance of my skin around either of my eyes, % Responders Score 3 [2]: 50% | Q2 appearance of my skin around either of my eyes, % Responders Score 3 [3]: 50% | Q2 appearance of my skin around either of my eyes, % Responders Score 3 [4]: 0% | Q2 appearance of my skin around either of my eyes, % Responders Score 3 [5]: 50% | Q2 appearance of my skin around either of my eyes, % Responders Score 3 [6]: 50% | Q4 any discomfort, other than slight tingling, in the treated area during the study, % Responders Score 3 [1]: 0% | Q4 any discomfort, other than slight tingling, in the treated area during the study, % Responders Score 3 [2]: 0% | Q4 any discomfort, other than slight tingling, in the treated area during the study, % Responders Score 3 [3]: 0% | Q4 any discomfort, other than slight tingling, in the treated area during the study, % Responders Score 3 [4]: 0% | Q4 any discomfort, other than slight tingling, in the treated area during the study, % Responders Score 3 [5]: 0% | Q4 any discomfort, other than slight tingling, in the treated area during the study, % Responders Score 3 [6]: 0% | Q1 My wrinkles in the eye area have improved, % Responders Score 4 [1]: 0% | Q1 My wrinkles in the eye area have improved, % Responders Score 4 [2]: 0% | Q1 My wrinkles in the eye area have improved, % Responders Score 4 [3]: 50% | Q1 My wrinkles in the eye area have improved, % Responders Score 4 [4]: 0% | Q1 My wrinkles in the eye area have improved, % Responders Score 4 [5]: 50% | Q1 My wrinkles in the eye area have improved, % Responders Score 4 [6]: 50% | Q3 how do you feel about the treated area surrounding your eyes and the appearance of wrinkles, % Responders Score 4 [1]: 0% | Q3 how do you feel about the treated area surrounding your eyes and the appearance of wrinkles, % Responders Score 4 [2]: 0% | Q3 how do you feel about the treated area surrounding your eyes and the appearance of wrinkles, % Responders Score 4 [3]: 0% | Q3 how do you feel about the treated area surrounding your eyes and the appearance of wrinkles, % Responders Score 4 [4]: 0% | Q3 how do you feel about the treated area surrounding your eyes and the appearance of wrinkles, % Responders Score 4 [5]: 0% | Q3 how do you feel about the treated area surrounding your eyes and the appearance of wrinkles, % Responders Score 4 [6]: 50% | Q2 appearance of my skin around either of my eyes, % Responders Score 4 [1]: 0% | Q2 appearance of my skin around either of my eyes, % Responders Score 4 [2]: 0% | Q2 appearance of my skin around either of my eyes, % Responders Score 4 [3]: 0% | Q2 appearance of my skin around either of my eyes, % Responders Score 4 [4]: 0% | Q2 appearance of my skin around either of my eyes, % Responders Score 4 [5]: 0% | Q2 appearance of my skin around either of my eyes, % Responders Score 4 [6]: 0% | Q4 any discomfort, other than slight tingling, in the treated area during the study, % Responders Score 4 [1]: 0% | Q4 any discomfort, other than slight tingling, in the treated area during the study, % Responders Score 4 [2]: 0% | Q4 any discomfort, other than slight tingling, in the treated area during the study, % Responders Score 4 [3]: 0% | Q4 any discomfort, other than slight tingling, in the treated area during the study, % Responders Score 4 [4]: 0% | Q4 any discomfort, other than slight tingling, in the treated area during the study, % Responders Score 4 [5]: 0% | Q4 any discomfort, other than slight tingling, in the treated area during the study, % Responders Score 4 [6]: 50% | Q1 My wrinkles in the eye area have improved, % Responders Score 5 [1]: 0% | Q1 My wrinkles in the eye area have improved, % Responders Score 5 [2]: 50% | Q1 My wrinkles in the eye area have improved, % Responders Score 5 [3]: 0% | Q1 My wrinkles in the eye area have improved, % Responders Score 5 [4]: 0% | Q1 My wrinkles in the eye area have improved, % Responders Score 5 [5]: 0% | Q1 My wrinkles in the eye area have improved, % Responders Score 5 [6]: 0% | Q3 how do you feel about the treated area surrounding your eyes and the appearance of wrinkles, % Responders Score 5 [1]: 0% | Q3 how do you feel about the treated area surrounding your eyes and the appearance of wrinkles, % Responders Score 5 [2]: 0% | Q3 how do you feel about the treated area surrounding your eyes and the appearance of wrinkles, % Responders Score 5 [3]: 0% | Q3 how do you feel about the treated area surrounding your eyes and the appearance of wrinkles, % Responders Score 5 [4]: 0% | Q3 how do you feel about the treated area surrounding your eyes and the appearance of wrinkles, % Responders Score 5 [5]: 0% | Q3 how do you feel about the treated area surrounding your eyes and the appearance of wrinkles, % Responders Score 5 [6]: 0% | Q2 appearance of my skin around either of my eyes, % Responders Score 5 [1]: 0% | Q2 appearance of my skin around either of my eyes, % Responders Score 5 [2]: 0% | Q2 appearance of my skin around either of my eyes, % Responders Score 5 [3]: 0% | Q2 appearance of my skin around either of my eyes, % Responders Score 5 [4]: 0% | Q2 appearance of my skin around either of my eyes, % Responders Score 5 [5]: 0% | Q2 appearance of my skin around either of my eyes, % Responders Score 5 [6]: 0% | Q4 any discomfort, other than slight tingling, in the treated area during the study, % Responders Score 5 [1]: 0% | Q4 any discomfort, other than slight tingling, in the treated area during the study, % Responders Score 5 [2]: 0% | Q4 any discomfort, other than slight tingling, in the treated area during the study, % Responders Score 5 [3]: 0% | Q4 any discomfort, other than slight tingling, in the treated area during the study, % Responders Score 5 [4]: 0% | Q4 any discomfort, other than slight tingling, in the treated area during the study, % Responders Score 5 [5]: 0% | Q4 any discomfort, other than slight tingling, in the treated area during the study, % Responders Score 5 [6]: 0% | Q2 appearance of my skin around either of my eyes, Score (Subject #1, Day 7, Topical 0.15% in Oil (Cohort 1)): 3 | Q2 appearance of my skin around either of my eyes, Score (Subject #1, Day 14, Topical 0.15% in Oil (Cohort 1)): 3 | Q2 appearance of my skin around either of my eyes, Score (Subject #2, Day 7, Topical 0.15% in Oil (Cohort 1)): 2 | Q2 appearance of my skin around either of my eyes, Score (Subject #2, Day 14, Topical 0.15% in Oil (Cohort 1)): 2 | Q2 appearance of my skin around either of my eyes, Score (Subject #3, Day 7, Topical 0.15% in PEG (Cohort 2)): 2 | Q2 appearance of my skin around either of my eyes, Score (Subject #3, Day 14, Topical 0.15% in PEG (Cohort 2)): 2 | Q2 appearance of my skin around either of my eyes, Score (Subject #4, Day 7, Topical 0.15% in PEG (Cohort 2)): 3 | Q2 appearance of my skin around either of my eyes, Score (Subject #4, Day 14, Topical 0.15% in PEG (Cohort 2)): 3 | Q2 appearance of my skin around either of my eyes, Score (Subject #5, Day 7, Topical 0.05% in PEG (Cohort 3)): 1 | Q2 appearance of my skin around either of my eyes, Score (Subject #5, Day 14, Topical 0.05% in PEG (Cohort 3)): 1 | Q2 appearance of my skin around either of my eyes, Score (Subject #6, Day 7, Topical 0.05% in PEG (Cohort 3)): 2 | Q2 appearance of my skin around either of my eyes, Score (Subject #6, Day 14, Topical 0.05% in PEG (Cohort 3)): 2
